Values quoted from earlier work, collected in patent publication US4374828A, “Biologically active thymones from the thymus” (Board of Reagents, The University of Texas System, priority 1980, dated 1983).

Columns and labels:
[1] = tested on: murine prothymocytes; settings: in vitro
[2] = tested on: cells which had a B-lineage; settings: in vitro
[3] = tested on: marrow cells
[4] = tested on: spleen cells of old mice

(H) Arg^32 -Lys^33 -Asp^34 -Val^35 -Tyr^36 -OH [pentapeptide]
Differentiation of prothymocytes to thymocytes (in words) [1]: induced, in vitro, differentiation of murine prothymocytes to thymocytes | Differential induction of B-lineage cells (in words) [2]: inhibited, in vitro, the differential induction of cells which had a B-lineage

NH2 -Ser-Glu-Phe-Leu-Glu^5 -Asp-Pro-Ser-Val-Leu^10 -Thr-Lys-Glu-Lys-Leu^15 -Lys-Ser-Glu-Leu-Val^20 -Ala-Asn-Val-Thr^25 -Leu-Pro-Ala-Gly-Glu^30 -Gln-Arg-Lys-Asp-Val^35 -Tyr-Val-Gln-Leu-Tyr^40 -Leu-Gln-Thr-Leu-Thr^45 -Ala-Val-Lys-Arg^49 -COOH (H-SEFLEDPSVLTKEKLKSELVANVTLPAGEQRKDVYVQLYLQTLTAVKR-OH) [thymin II, polypeptide of bovine thymin, renamed thymopoietin II]
Induction of marrow cells (in words) [3]: induce marrow cells to develop as intrathymic lymphocytes

thymopoietin: a preparation of thymopoietin
Immune function of spleen cells (in words) [4]: increased the immune function of the spleen cells of old mice
